In experiment [1] the target is Serine/threonine-protein kinase mTOR (Homo sapiens) (UniProt P42345). Description: Inhibition of human recombinant FRAP at 15 nM in presence of ATP by radiometric assay relative to control.
For experiment [2], the target named is T1, Mitogen-activated protein kinase kinase kinase kinase 2 (Homo sapiens) (UniProt Q12851).
T1 sequence (whole entry): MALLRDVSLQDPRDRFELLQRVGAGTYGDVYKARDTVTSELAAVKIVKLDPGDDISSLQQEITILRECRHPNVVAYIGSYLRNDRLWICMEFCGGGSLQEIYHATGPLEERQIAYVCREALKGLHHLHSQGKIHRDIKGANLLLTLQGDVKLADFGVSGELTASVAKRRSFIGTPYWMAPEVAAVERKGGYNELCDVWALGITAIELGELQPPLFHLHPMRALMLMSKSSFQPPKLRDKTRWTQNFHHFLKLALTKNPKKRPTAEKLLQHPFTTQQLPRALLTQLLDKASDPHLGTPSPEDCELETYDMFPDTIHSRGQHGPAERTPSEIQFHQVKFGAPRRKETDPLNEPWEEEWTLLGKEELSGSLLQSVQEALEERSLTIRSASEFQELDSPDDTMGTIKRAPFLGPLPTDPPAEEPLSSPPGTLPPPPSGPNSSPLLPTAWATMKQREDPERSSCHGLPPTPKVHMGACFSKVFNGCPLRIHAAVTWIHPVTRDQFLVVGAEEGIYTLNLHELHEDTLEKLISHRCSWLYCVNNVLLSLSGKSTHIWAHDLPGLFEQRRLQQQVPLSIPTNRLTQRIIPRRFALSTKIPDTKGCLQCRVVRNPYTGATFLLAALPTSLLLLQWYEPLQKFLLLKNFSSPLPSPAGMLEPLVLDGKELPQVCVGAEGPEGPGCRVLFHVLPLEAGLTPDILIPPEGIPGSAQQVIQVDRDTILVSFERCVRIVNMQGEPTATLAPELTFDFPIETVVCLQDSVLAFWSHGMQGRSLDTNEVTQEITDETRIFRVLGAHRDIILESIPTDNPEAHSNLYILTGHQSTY
Kind of experiment: Inhibition of human recombinant GCK at 15 nM related to control ULK1.

The target of experiment [3] is T2, Ephrin type-A receptor 3 (Homo sapiens) (UniProt P29320).
T2 sequence (whole entry): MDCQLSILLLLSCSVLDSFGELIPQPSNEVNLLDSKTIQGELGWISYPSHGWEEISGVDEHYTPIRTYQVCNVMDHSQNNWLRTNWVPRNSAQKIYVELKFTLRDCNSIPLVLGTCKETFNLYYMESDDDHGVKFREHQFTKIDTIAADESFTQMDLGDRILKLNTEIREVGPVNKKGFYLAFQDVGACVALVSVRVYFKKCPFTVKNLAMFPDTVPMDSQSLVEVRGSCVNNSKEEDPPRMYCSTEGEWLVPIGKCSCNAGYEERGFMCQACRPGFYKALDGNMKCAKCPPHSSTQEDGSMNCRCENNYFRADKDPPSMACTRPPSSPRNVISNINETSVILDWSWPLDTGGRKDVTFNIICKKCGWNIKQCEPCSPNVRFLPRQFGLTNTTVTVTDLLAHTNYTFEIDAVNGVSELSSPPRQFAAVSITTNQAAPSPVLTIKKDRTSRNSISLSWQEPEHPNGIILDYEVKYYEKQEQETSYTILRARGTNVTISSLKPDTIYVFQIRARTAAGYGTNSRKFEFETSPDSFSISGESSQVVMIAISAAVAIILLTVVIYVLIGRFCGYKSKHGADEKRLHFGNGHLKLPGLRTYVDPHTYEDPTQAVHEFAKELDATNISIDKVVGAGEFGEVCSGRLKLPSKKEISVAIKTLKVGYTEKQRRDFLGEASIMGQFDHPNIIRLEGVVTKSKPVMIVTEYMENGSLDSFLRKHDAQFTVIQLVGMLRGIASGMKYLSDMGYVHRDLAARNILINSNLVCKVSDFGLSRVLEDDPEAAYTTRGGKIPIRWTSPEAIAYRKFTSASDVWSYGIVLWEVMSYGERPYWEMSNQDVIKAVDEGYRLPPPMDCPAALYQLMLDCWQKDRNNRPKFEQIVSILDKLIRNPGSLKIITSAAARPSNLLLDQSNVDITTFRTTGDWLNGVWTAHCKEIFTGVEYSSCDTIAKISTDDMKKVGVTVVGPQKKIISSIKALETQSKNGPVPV
Description: Inhibition of human recombinant EphA3 at 15 nM in presence of ATP by radiometric assay relative to control.

Experiment [4] addresses SRSF protein kinase 3 (Homo sapiens) (UniProt Q9UPE1). Description: Inhibition of human recombinant MSSK1 at 40 nM related to control ULK1.
The target of experiment [5] is Epithelial discoidin domain-containing receptor 1 (Homo sapiens) (UniProt Q08345). Kind of experiment: Inhibition of human recombinant DDR1 at 40 nM in presence of ATP by radiometric assay relative to control.
Sequence of Epithelial discoidin domain-containing receptor 1 (Homo sapiens) (Q08345 whole entry, the tested form may be a part): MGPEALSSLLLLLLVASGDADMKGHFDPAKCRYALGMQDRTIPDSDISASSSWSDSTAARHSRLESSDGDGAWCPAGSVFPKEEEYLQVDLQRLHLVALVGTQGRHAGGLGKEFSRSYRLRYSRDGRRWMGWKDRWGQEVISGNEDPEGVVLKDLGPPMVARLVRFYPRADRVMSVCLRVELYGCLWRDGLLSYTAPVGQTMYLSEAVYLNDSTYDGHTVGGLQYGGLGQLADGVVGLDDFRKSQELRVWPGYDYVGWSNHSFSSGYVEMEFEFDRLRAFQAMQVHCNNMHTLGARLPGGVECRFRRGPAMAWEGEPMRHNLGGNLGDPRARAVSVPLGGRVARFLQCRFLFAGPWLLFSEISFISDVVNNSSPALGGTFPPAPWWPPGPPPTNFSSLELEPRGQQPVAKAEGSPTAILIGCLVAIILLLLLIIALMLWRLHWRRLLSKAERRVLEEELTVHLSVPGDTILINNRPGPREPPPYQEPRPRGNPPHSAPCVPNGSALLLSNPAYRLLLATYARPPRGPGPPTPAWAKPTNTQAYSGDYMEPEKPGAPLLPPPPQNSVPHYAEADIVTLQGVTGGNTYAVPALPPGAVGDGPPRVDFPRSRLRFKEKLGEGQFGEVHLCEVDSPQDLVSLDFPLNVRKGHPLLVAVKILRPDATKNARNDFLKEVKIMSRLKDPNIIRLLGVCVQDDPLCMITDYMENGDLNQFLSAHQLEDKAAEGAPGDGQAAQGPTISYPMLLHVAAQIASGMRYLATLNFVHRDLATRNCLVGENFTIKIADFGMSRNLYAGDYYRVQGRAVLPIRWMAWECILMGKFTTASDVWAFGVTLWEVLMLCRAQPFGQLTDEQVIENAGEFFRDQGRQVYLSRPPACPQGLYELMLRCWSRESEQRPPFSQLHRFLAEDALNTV
The target in experiment [6] is T3, Tribbles homolog 2 (Homo sapiens) (UniProt Q92519).
T3 sequence (whole entry): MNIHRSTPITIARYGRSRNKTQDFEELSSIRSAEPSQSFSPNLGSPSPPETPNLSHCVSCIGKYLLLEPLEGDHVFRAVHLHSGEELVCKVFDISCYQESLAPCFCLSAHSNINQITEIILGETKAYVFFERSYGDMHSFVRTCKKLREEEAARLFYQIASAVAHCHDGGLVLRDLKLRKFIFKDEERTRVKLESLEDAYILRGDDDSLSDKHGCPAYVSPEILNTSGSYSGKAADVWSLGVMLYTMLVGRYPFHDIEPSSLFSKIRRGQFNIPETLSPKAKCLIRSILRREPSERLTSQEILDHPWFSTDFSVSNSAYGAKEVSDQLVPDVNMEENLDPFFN
Kind of experiment: Inhibition of human recombinant Trb2 at 40 nM in presence of ATP by radiometric assay relative to control.

Experiment [7] has as its target Vascular endothelial growth factor receptor 3 (Homo sapiens) (UniProt P35916). Description: Inhibition of human recombinant FLT4 at 40 nM in presence of ATP by radiometric assay relative to control.
Experiment [8] has as its target Ribosomal protein S6 kinase alpha-3 (Homo sapiens) (UniProt P51812). Kind of experiment: Inhibition of human recombinant RSK2 at 40 nM related to control ULK1.
For experiment [9], the target named is Tyrosine-protein kinase CSK (Homo sapiens) (UniProt P41240). Description: Inhibition of human recombinant CSK at 500 nM related to control ULK1.
Sequence of Tyrosine-protein kinase CSK (Homo sapiens) (P41240 2-450 limits assumed): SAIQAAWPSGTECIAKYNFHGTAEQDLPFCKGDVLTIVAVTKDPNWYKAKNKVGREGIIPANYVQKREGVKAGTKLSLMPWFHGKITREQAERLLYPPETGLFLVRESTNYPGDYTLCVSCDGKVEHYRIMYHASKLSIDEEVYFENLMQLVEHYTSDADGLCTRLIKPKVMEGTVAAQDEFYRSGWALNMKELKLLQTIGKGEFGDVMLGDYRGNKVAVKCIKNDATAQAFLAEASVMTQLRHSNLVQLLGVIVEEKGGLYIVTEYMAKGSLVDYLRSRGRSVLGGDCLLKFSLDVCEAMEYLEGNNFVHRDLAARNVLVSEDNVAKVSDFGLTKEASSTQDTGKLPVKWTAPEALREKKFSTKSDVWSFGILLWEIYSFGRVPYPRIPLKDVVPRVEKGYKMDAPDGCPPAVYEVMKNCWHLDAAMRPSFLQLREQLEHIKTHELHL
The target of experiment [10] is Tyrosine-protein kinase JAK1 (Homo sapiens) (UniProt P23458). Description: Inhibition of human recombinant JAK1 at 500 nM in presence of ATP by radiometric assay relative to control.
Sequence of Tyrosine-protein kinase JAK1 (Homo sapiens) (P23458 whole entry): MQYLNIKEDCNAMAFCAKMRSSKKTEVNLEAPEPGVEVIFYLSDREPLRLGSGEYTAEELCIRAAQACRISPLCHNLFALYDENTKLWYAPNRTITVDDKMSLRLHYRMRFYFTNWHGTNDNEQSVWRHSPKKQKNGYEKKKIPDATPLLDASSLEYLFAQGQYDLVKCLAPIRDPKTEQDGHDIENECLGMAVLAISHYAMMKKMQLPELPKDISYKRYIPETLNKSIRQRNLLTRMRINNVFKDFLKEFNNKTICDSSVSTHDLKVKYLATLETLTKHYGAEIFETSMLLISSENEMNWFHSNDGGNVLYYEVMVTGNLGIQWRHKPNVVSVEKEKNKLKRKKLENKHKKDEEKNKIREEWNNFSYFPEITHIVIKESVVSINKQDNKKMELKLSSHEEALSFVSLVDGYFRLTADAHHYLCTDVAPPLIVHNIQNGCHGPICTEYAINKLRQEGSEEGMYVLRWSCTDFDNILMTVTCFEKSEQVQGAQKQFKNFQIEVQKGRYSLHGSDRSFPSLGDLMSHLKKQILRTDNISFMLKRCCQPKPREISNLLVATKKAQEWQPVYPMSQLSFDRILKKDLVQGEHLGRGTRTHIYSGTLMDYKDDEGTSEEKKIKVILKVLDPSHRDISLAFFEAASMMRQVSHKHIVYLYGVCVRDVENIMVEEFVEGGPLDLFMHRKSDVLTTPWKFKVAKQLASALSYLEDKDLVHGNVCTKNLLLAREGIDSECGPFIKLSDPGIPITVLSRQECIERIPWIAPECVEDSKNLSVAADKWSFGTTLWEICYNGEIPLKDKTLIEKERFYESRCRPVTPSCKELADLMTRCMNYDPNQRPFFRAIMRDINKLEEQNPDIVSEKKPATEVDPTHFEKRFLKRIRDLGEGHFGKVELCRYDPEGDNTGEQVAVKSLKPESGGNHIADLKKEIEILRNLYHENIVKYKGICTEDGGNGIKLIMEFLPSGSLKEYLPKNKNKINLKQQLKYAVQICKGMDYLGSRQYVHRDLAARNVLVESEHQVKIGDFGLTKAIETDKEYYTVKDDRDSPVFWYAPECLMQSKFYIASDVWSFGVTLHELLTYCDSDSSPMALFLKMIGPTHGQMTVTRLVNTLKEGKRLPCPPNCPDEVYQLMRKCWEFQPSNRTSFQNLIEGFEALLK
For experiment [11], the target named is Serine/threonine-protein kinase PLK2 (Homo sapiens) (UniProt Q9NYY3). Kind of experiment: Inhibition of human recombinant PLK2 at 500 nM in presence of ATP by radiometric assay relative to control.
Sequence of Serine/threonine-protein kinase PLK2 (Homo sapiens) (Q9NYY3 whole entry, looked up): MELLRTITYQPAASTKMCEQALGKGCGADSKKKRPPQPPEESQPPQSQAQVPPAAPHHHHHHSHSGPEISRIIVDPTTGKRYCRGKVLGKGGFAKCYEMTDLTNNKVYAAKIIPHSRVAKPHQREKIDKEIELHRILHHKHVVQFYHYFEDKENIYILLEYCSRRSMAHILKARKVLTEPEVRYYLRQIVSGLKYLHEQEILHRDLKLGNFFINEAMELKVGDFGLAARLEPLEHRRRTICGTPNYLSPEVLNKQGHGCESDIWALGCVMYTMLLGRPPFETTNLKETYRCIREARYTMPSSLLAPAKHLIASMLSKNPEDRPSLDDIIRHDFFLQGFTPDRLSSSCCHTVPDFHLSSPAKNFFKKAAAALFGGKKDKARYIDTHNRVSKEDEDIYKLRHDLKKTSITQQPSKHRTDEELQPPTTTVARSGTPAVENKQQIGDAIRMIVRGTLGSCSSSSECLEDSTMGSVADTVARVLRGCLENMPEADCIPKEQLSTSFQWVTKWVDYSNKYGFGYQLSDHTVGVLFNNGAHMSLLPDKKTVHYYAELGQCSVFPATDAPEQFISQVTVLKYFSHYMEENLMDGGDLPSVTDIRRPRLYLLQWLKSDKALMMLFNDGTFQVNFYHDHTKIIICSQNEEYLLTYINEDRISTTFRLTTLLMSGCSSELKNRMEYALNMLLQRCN
Experiment [12] has as its target Serine/threonine-protein kinase 32A (Homo sapiens) (UniProt Q8WU08). Description: Inhibition of human recombinant YANK1 at 500 nM related to control ULK1.
Experiment [13] addresses T3, Tribbles homolog 2 (Homo sapiens). Kind of experiment: Inhibition of human recombinant Trb2 at 500 nM related to control ULK1.

3 compounds from ChEMBL document CHEMBL5653631, “A Potent and Selective ULK1 Inhibitor Suppresses Autophagy and Sensitizes Cancer Cells to Nutrient Stress” (iScience, 2018) can be followed below.

Usually inhibition stands for how much of the control response was suppressed.

Sequence of Serine/threonine-protein kinase 32A (Homo sapiens) (Q8WU08 whole entry): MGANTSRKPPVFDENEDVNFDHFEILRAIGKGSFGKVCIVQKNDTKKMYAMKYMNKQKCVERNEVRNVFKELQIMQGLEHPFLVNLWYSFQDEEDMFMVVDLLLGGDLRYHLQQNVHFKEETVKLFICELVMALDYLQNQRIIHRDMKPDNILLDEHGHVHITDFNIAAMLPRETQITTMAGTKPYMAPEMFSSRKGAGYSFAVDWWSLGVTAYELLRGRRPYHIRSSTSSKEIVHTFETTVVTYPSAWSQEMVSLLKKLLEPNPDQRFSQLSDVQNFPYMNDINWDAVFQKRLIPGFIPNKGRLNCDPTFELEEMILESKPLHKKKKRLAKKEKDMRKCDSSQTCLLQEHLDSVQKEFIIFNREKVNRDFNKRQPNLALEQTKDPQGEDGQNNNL
Sequence of SRSF protein kinase 3 (Homo sapiens) (Q9UPE1 whole entry, the tested form may be a part): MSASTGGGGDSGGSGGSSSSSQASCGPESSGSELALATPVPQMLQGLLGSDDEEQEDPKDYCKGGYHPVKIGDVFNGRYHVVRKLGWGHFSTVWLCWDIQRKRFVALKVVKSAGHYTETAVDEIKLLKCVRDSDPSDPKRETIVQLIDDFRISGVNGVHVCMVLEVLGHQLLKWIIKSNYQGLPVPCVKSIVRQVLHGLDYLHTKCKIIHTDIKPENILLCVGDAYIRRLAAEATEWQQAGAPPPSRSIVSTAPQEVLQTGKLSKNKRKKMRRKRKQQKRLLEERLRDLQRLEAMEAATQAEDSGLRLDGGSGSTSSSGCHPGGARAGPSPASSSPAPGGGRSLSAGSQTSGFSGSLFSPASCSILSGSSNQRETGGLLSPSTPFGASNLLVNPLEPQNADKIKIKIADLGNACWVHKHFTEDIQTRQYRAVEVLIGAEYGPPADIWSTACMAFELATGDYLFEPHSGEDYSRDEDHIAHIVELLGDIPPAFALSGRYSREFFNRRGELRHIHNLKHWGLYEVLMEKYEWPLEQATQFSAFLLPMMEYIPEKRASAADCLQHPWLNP
Sequence of Ribosomal protein S6 kinase alpha-3 (Homo sapiens) (P51812 whole entry): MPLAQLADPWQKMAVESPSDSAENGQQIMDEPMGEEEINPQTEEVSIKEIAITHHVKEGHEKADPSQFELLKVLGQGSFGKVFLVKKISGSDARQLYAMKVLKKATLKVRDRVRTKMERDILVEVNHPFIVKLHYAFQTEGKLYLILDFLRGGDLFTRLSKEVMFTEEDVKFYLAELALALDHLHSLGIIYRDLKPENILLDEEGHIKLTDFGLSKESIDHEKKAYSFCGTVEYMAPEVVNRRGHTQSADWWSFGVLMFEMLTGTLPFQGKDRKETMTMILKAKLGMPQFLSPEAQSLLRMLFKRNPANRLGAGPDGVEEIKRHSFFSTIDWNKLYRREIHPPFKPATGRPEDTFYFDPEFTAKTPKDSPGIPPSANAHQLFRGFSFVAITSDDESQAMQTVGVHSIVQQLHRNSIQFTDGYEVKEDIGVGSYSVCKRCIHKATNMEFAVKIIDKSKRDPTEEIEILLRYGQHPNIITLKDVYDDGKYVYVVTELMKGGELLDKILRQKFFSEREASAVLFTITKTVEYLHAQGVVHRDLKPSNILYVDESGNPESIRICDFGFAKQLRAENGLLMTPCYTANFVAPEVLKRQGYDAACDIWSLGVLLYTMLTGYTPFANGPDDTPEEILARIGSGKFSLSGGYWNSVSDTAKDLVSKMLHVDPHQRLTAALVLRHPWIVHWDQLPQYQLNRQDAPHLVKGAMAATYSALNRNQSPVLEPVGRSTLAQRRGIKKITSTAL

Consider `CC(C)[C@H](NC(=O)c1cc(-c2cnn3cc(-c4ccc(OCCN5CCCCC5)cc4)cnc23)cs1)C(F)(F)F`, for which the inhibition turned out to be 0% in [1] and 3% in experiment [3]. Further, the fold change (FC) in [2] was found to be 0.39.
Turning to `O=C(N[C@@H](C1CC1)C(F)(F)F)c1cc(-c2cnn3cc(-c4ccc(F)cc4)cnc23)cs1`, the fold change (FC) in [4] was 0.18; in experiment [8], 0. Moreover, the inhibition in [5] came to 18%; in experiment [6], 34%; in experiment [7], 19%.
As for `CNC(=O)c1ccccc1Oc1nc(Nc2cc(OC)c(OC)c(OC)c2)ncc1Br`, the fold change (FC) in experiment [9] amounted to 0.03; in [12] it was 0; in [13] it was 0. Also, the inhibition in experiment [10] was 39%; in [11] it was 4%.
